System: myocytes
Test: PDT of heart tissue, cell death tracked by PI fluorescence
Conditions: in vivo
Excerpt: PI fluorescence is only from myocytes.
FIG. 25 are images showing an embodiment of a non-targeted PDT with Ce6, in accordance with the present inventions.
Turning to FIG. 15, there is shown that PI (a nuclear stain for dead cells) is only present in myocytes (3 different magnified areas).
Turning to FIG. 16, there is shown similar tissue sampling test as FIG. 15, but using non-targeted PDT.

chlorin e6 [Ce6]
damage to vasculature / non-target cells after PDT (PI fluorescence): vasculature damage | damage to vasculature / non-target cells after PDT (PI fluorescence) (listed as untargeted Ce6): kills everything
